In assay [1] the target is T1, PDE III (Cavia porcellus, UniProt H0VIU9).
T1 construct: their hearts were removed and 2 ventricular preparations; from tissue; host or cells: guinea-pig right ventricle strips
T1 sequence (H0VIU9 1-1132): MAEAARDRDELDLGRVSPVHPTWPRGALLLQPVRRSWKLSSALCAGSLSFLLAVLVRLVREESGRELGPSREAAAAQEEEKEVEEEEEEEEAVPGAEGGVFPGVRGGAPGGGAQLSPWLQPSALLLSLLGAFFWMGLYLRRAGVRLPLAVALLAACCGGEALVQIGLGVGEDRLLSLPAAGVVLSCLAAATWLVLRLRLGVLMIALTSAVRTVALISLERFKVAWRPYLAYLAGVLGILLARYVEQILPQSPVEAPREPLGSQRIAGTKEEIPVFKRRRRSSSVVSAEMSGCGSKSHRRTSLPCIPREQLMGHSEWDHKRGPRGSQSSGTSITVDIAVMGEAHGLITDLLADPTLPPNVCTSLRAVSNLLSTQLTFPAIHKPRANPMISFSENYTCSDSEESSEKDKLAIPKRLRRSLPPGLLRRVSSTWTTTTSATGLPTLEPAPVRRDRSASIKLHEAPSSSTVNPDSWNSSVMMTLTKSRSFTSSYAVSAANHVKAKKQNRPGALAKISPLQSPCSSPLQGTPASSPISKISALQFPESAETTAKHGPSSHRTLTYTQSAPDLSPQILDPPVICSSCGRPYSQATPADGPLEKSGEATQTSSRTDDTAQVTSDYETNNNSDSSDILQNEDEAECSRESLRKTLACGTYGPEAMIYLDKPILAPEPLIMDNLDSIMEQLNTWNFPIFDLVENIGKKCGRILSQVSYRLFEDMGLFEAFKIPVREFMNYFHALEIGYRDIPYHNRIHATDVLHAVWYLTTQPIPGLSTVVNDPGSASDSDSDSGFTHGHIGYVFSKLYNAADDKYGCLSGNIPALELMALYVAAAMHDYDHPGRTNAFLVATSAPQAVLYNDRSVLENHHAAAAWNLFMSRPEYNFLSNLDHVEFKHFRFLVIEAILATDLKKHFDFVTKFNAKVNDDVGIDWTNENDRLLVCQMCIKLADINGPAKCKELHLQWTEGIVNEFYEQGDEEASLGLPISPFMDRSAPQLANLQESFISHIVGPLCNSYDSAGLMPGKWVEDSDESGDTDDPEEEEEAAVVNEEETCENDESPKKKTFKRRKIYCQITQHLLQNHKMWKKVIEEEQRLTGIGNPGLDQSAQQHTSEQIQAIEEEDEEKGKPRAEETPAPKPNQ
Briefly: Non-sensitized guinea-pig right ventricle strips: increase in developed tension (PDE III inhibitory activity). The class given is cell-based. The note with it: concentration causing 50% increase in developed tension; untreated (non-sensitized) strips; 37° C., 1 Hz; read-out: Guinea-Pig Non-Sensitized right ventricle strips (EC50μ M). How it is done:
(§1) There is, however, a synergistic interaction between selective PDE III and PDE IV inhibitors in guinea-pig ventricle. […] There were then mounted in organ baths containing modified Krebs-Henseleit solution of the following composition (mM): NaCl 118; NaHCO3 25; Glucose 11; KCl 5.4; CaCl2 2.5; NaH2PO4 1.2 and MgCl2 0.8. The physiological buffer was maintained at 37° C. and continually aerated with 95% O2 / 5% CO2 v/v. The preparations were placed under 1 g resting tension and electrically stimulated to contract at 1 Hz whilst force of contraction was measured using an isometric force transducer. Preparations were equilibrated for 60 minutes during which they were washed every 15 minutes with fresh buffer. […] Concentrations causing a 50% increase (EC50) were calculated.

In assay [2] the test system is PDE IV. Briefly: Guinea-pig right ventricle strips sensitized with a PDE III inhibitor (e.g. amrinone): increase in developed tension (PDE IV inhibitory activity). The assay is classed as cell-based. The note with it: concentration causing 50% increase in developed tension; strips pre-treated with selective PDE III inhibitor (e.g. amrinone) 10 minutes before; 37° C., 1 Hz; read-out: Guinea-Pig Sensitized right ventricle strips (EC50μ M). As for the experimental part:
as §1

Assay [3] concerns isolated guinea-pig ventricles. The note with it: literature (Gristwood and Owen, Br. J. Pharmacol., 87, 91P., 1985); cited from earlier work.

SMILES strings stand for the structures. pEC50: −log10 of the molar value.

Regarding `CCCn1c(=O)c2[nH]cnc2n(-c2cccc([N+](=O)[O-])c2)c1=O` [Compound 10], the pEC50 is < 4.00 in assay [1] and 6.40 in assay [2].

In the case of `CCCCCCn1c(=O)c2[nH]cnc2n(-c2ccc3c(c2)OCO3)c1=O` [Compound 36, 1-n-hexyl-3-(3,4-methylenedioxyphenyl)-xanthine], the pEC50 in assay [1] was < 4.00; in assay [2] it was 6.00.

`CC(=O)Nc1ccc(-c2c[nH]c(=O)cn2)cc1` [SK&F 94120]: the “inotropic response in isolated guinea-pig ventricles” value in assay [3] is “produce a positive inotropic response”.

Regarding `CCCn1c(=O)c2[nH]cnc2n(-c2ccc(Br)cc2)c1=O` [Compound 5], the pEC50 in assay [1] is < 4.00; in assay [2], 6.05.

`CCCCn1c(=O)c2[nH]cnc2n(-c2ccc(F)cc2)c1=O` [Compound 18]: the pEC50 in assay [1] was < 4.00; in assay [2], 6.70.

For `Cn1c(=O)c2[nH]cnc2n(-c2ccccc2)c1=O` [Compound A, 1methyl-3-phenylxanthine, reference compound], the pEC50 was < 4.00 in assay [1] and 5.05 in assay [2].

Take `CCCCn1c(=O)c2[nH]cnc2n(-c2cccc(OC)c2)c1=O` [Compound 21, 1-n-butyl-3-(3-methoxyphenyl)-xanthine]: the figures for the pEC50 in assay [1] and in assay [2] were < 4.00 and 5.92, respectively.

With `CCCn1c(=O)c2[nH]cnc2n(-c2cccc(OC)c2)c1=O` [Compound 9], the pEC50 was < 4.00 in assay [1] and 6.70 in assay [2].

`Cn1c(=O)c2[nH]cnc2n(C)c1=O` [THEOPHYLLINE, reference compound]: the pEC50 in assay [1] is 3.00; in assay [2], 2.82.

For `CCCCn1c(=O)c2[nH]cnc2n(-c2ccc(OC)cc2)c1=O` [Compound 20], the pEC50 was < 4.00 in assay [1] and 6.52 in assay [2].

For the compound `CCCn1c(=O)c2[nH]cnc2n(-c2ccc(Cl)c(Cl)c2)c1=O` [Compound 12, 1-n-propyl-3-(3,4-dicholorophenyl)-xanthine], the pEC50 in assay [1] is < 4.00; in assay [2] it was 5.89.

For the compound `CCCn1c(=O)c2[nH]c(C)nc2n(-c2ccccc2)c1=O` [Compound B, 1propyl-3-phenyl-8-methylxanthine, reference compound], the pEC50 in assay [1] is < 4.00; in assay [2], 5.15.

As to `CCCn1c(=O)c2[nH]cnc2n(-c2ccc(Cl)cc2)c1=O` [Compound 1, 1-n-propyl-3-(4-chlorophenyl)-xanthine], the results for the pEC50 in assay [1] and in assay [2] were < 4.00 and 5.80, respectively.

Regarding `COc1ccc(C2CNC(=O)C2)cc1OC1CCCC1` (stereo not shown) [rolipram], the “inotropic response in isolated guinea-pig ventricles” value in assay [3] is on record as “have no effect”.

Turning to `CCCn1c(=O)c2[nH]cnc2n(-c2cccc(Cl)c2)c1=O` [Compound 2], the pEC50 in assay [1] was < 4.00; in assay [2], 7.00.

The values above are taken from patent US5223504A, “Xanthine compounds and compositions, and methods of using them” (Laboratorios Almirall SA, priority 1989, dated 1993).
